# Assay results reported in ChEMBL document CHEMBL1201862, “PubChem BioAssay data set” (2004).
#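 Cultured in 96-well plates, cells were exposed to test compound for 48 hours across five concentrations. GI50: concentration for 50% inhibition of growth.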 The source made the active and inactive calls. Rule as the data show it: active = GI50 up to about 1.1 µM and inactive = higher.
# Tests used:
# Test in all cases: NCI tumour cell line growth inhibition, 48 h
# 786-0 = tested on: 786-0
# NCI-H226 = tested on: NCI-H226
# U-251 = tested on: U-251
# ACHN = tested on: ACHN
# DLD-1 = tested on: DLD-1
# UO-31 = tested on: UO-31
# EKVX = tested on: EKVX
# SNB-78 = tested on: SNB-78
# HOP-92 = tested on: HOP-92
# M19-MEL = tested on: M19-MEL
# LXFL 529 = tested on: LXFL 529
# SW-620 = tested on: SW-620
# MOLT-4 = tested on: MOLT-4
# DMS-114 = tested on: DMS-114
# SNB-75 = tested on: SNB-75
# HL-60 = tested on: HL-60
# RPMI-8226 = tested on: RPMI-8226
# OVCAR-5 = tested on: OVCAR-5
# SN12C = tested on: SN12C
# IGROV-1 = tested on: IGROV-1
# OVCAR-3 = tested on: OVCAR-3
# NCI-H460 = tested on: NCI-H460
# M14 = tested on: M14
# CCRF-CEM = tested on: CCRF-CEM
# UACC-62 = tested on: UACC-62
# DMS-273 = tested on: DMS-273
# Malme-3M = tested on: Malme-3M
# SF-268 = tested on: SF-268
# SNB-19 = tested on: SNB-19
# UACC-257 = tested on: UACC-257
# HCT-15 = tested on: HCT-15
# HCT-116 = tested on: HCT-116
# SK-OV-3 = tested on: SK-OV-3
# LOX IMVI = tested on: LOX IMVI
# SK-MEL-28 = tested on: SK-MEL-28
# NCI-H522 = tested on: NCI-H522
# A549 = tested on: A549
# SF-295 = tested on: SF-295
# HOP-62 = tested on: HOP-62
# XF498 = tested on: XF498
# KM-20L2 = tested on: KM-20L2
# OVCAR-8 = tested on: OVCAR-8
# SK-MEL-5 = tested on: SK-MEL-5
# TK-10 = tested on: TK-10
# COLO 205 = tested on: COLO 205
# HT-29 = tested on: HT-29
# A498 = tested on: A498
# SR = tested on: SR
# SF-539 = tested on: SF-539
# HOP-18 = tested on: HOP-18
# SK-MEL-2 = tested on: SK-MEL-2
# HCC 2998 = tested on: HCC 2998
# OVCAR-4 = tested on: OVCAR-4
# NCI-H23 = tested on: NCI-H23
# K562 = tested on: K562
# KM12 = tested on: KM12
# CAKI-1 = tested on: CAKI-1
structure (smiles),measurement,setting,value
CC(C)N(C(=O)C12C3C4C5C3C1(C#N)C5C42)C(C)C (configuration not stated),GI50,786-0,> 100 µM (inactive)
same,GI50,NCI-H226,> 100 µM (inactive)
same,GI50,U-251,> 100 µM (inactive)
same,GI50,ACHN,> 100 µM (inactive)
same,GI50,DLD-1,> 100 µM (inactive)
same,GI50,UO-31,> 100 µM (inactive)
same,GI50,EKVX,> 100 µM (inactive)
same,GI50,SNB-78,> 100 µM (inactive)
same,GI50,HOP-92,> 100 µM (inactive)
same,GI50,M19-MEL,> 100 µM (inactive)
same,GI50,LXFL 529,> 100 µM (inactive)
same,GI50,SW-620,11.6 µM (inactive)
same,GI50,MOLT-4,> 100 µM (inactive)
same,GI50,DMS-114,> 100 µM (inactive)
same,GI50,SNB-75,> 100 µM (inactive)
same,GI50,HL-60,> 100 µM (inactive)
same,GI50,RPMI-8226,> 100 µM (inactive)
same,GI50,OVCAR-5,> 100 µM (inactive)
same,GI50,SN12C,> 100 µM (inactive)
same,GI50,IGROV-1,> 100 µM (inactive)
same,GI50,OVCAR-3,> 100 µM (inactive)
same,GI50,NCI-H460,> 100 µM (inactive)
same,GI50,M14,> 100 µM (inactive)
same,GI50,CCRF-CEM,> 100 µM (inactive)
same,GI50,UACC-62,> 100 µM (inactive)
same,GI50,DMS-273,> 100 µM (inactive)
same,GI50,Malme-3M,> 100 µM (inactive)
same,GI50,SF-268,> 100 µM (inactive)
same,GI50,SNB-19,> 100 µM (inactive)
same,GI50,UACC-257,> 100 µM (inactive)
same,GI50,HCT-15,> 100 µM
same,GI50,HCT-116,> 100 µM (inactive)
same,GI50,SK-OV-3,> 100 µM (inactive)
same,GI50,LOX IMVI,35.3 µM (inactive)
same,GI50,SK-MEL-28,> 100 µM (inactive)
same,GI50,NCI-H522,> 100 µM (inactive)
same,GI50,A549,> 100 µM (inactive)
same,GI50,SF-295,> 100 µM (inactive)
same,GI50,HOP-62,> 100 µM (inactive)
same,GI50,XF498,> 100 µM (inactive)
same,GI50,KM-20L2,> 100 µM (inactive)
same,GI50,OVCAR-8,> 100 µM (inactive)
same,GI50,SK-MEL-5,> 100 µM (inactive)
same,GI50,TK-10,> 100 µM (inactive)
same,GI50,COLO 205,> 100 µM (inactive)
same,GI50,HT-29,> 100 µM (inactive)
same,GI50,A498,> 100 µM (inactive)
same,GI50,SR,> 100 µM (inactive)
same,GI50,SF-539,> 100 µM (inactive)
same,GI50,HOP-18,> 100 µM (inactive)
same,GI50,SK-MEL-2,> 100 µM (inactive)
same,GI50,HCC 2998,> 100 µM (inactive)
same,GI50,OVCAR-4,> 100 µM (inactive)
same,GI50,NCI-H23,> 100 µM (inactive)
same,GI50,K562,> 100 µM (inactive)
same,GI50,KM12,> 100 µM (inactive)
same,GI50,CAKI-1,> 100 µM (inactive)
